For the data set, the target named is T1, NOD2 (Homo sapiens, UniProt Q9HC29).
T1 construct: host or cells: HEK-293T-derived HEK-Blue NF-kB/SEAP reporter cells
As to the kind of experiment: NOD2-HEK-Blue NF-κB reporter cell activation assay (NOD2-expressing HEK-293T cells). The format is cell-based. The note with it: for EC50: calculated, three-parameter dose-response nonlinear regression, read-out: pEC50 (μM), dose-dependent activation of NOD2-expressing HEK-293T cells (converted). An outline of the steps: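 HEK-Blue NOD2 reporter cells in HEK-Blue detection medium were exposed to compounds for 8-10 h at 37° C. (or 16 h in complete DMEM, then QUANTI-Blue for 2-4 h). Secreted alkaline phosphatase read by absorbance at 630 nm; pEC50 from three-parameter dose-response nonlinear regression.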

SMILES strings stand for the structures.

T1 sequence (Q9HC29 whole entry): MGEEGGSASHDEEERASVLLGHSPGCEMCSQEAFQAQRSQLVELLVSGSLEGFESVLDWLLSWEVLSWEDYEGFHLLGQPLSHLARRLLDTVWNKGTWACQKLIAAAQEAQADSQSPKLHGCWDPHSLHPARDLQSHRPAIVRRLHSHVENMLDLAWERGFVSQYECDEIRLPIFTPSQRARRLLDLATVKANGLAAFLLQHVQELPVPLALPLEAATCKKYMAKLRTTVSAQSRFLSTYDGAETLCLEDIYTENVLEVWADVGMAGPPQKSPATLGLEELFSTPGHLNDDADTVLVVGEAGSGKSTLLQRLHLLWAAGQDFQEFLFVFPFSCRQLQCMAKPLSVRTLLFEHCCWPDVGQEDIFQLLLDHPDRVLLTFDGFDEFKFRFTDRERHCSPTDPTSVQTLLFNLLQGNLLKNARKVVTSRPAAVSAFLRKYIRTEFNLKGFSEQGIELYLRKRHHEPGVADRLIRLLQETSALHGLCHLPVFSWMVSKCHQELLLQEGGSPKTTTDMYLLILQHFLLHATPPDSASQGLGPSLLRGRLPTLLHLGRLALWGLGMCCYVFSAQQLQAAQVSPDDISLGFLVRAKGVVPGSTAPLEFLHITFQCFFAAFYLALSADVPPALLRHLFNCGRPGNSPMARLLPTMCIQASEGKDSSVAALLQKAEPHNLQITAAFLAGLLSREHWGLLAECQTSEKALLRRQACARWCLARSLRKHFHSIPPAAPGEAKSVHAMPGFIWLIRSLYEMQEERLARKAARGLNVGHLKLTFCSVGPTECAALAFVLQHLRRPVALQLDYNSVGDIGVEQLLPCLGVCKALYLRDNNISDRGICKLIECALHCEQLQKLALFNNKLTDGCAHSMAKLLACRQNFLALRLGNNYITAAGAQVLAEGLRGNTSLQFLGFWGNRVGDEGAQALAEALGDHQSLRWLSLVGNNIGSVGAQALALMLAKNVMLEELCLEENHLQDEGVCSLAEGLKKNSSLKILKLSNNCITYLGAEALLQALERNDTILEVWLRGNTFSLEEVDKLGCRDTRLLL

As to `CC(=O)N[C@H]1C(O)O[C@H](CO)[C@@H](O)[C@@H]1O[C@H](C)C(=O)N[C@@H](C)C(=O)N[C@H](CCC(=O)O)C(N)=O` (stereo partly drawn) [MDP, (4R)-4-((2S)-2-((2R)-2-(((3R,4R,5S,6R)-3-acetamido-2,5-dihydroxy-6-(hydroxymethyl)tetrahydro-2H-pyran-4-yl)oxy)propanamido)propanamido)-5-amino-5-oxopentanoic acid, reference compound], the EC50 was 0.126 µM. As to `CCOC(=O)CC[C@@H](NC(=O)[C@@H](NC(=O)c1c(C)nn(-c2cc[nH]c(=O)c2)c1C)C(C)C)C(=O)OCC` [TT030, Diethyl (3,5-dimethyl-1-(2-oxo-1,2-dihydropyridin-4-yl)-1H-pyrazole-4-carbonyl)-L-valyl-D-glutamate], the EC50 is 0.251 µM. The “lipophilic ligand efficiency (LLE)” value (calculated pEC50 vs. clogP, FIG. 2G) was 6.81.

The values above are taken from patent publication US20260176300A1, “N-ARYLPYRAZOLE NOD2 AGONISTS AS PROMOTERS OF IMMUNE CHECKPOINT INHIBITOR THERAPY” (THE SCRIPPS RESEARCH INSTITUTE, priority 2022, published 2026).
